The text below walks through data of patent US5821353A, “DNA encoding 1,3 beta-D glucan synthase subunits” (Merck & Co., Inc., priority 1996, dated 1998).

In experiment [1] the test system is S. cerevisiae YFK007 (wild type). The experiment can be described thus: primary screen, zone size on agar. As to conditions: 20 ng FK506, 10 mcg CsA, 10 mcg L733,560, 20 mcg aculeacin, 20 mcg papulacandin, 48 h. Type of experiment: cell-based, Saccharomyces cerevisiae. The protocol: (§1) Each strain is grown at 28°-30° C. in YPAD/10 mM CaCl2 medium with shaking at 220 rpm (to mid or late log phase). The cultures are diluted 1:10 with water, and the OD values of the dilutions are measured at 600 nm (against a blank of YPAD/10 mM CaCl2 similarly diluted 1:10 in water). The OD value is multiplied by 10 to estimate the OD of the culture. Portions (100 ml) of YPAD/10 mM CaCl2 medium containing 1.5% agar, equilibrated at 45° C. in a water bath, are seeded with culture such that the final cell density in the agar would have an OD value of 0.015 (i.e., 3×10^6 cfu/ml; a sample calculation is provided below). The seeded agar is poured into 500 cm^2 Nunc plates. Once the agar plates have solidified, 10 mcL aliquots of samples containing test compounds, such as fermentation extracts, are dissolved in water, 100% methanol or ethanol, or up to 50% DMSO and are placed on each member of the two-plate set in 11 by 8 arrays.
(§2) The plates are incubated for 48 h at 28°-30° C. Diameters of the zones are read to the outermost edge and recorded in mm. The clarity of the zone is reported as clear (no designation), hazy (h), or very hazy (vh). Very hazy zones are best seen by viewing the plate under an elevated light placed between the assay dish and a dark wall.

Experiment [2] relates to S. cerevisiae YFK532-7C (fks1-1). As to the kind of experiment: primary screen, zone size on agar. Type of experiment: cell-based, Saccharomyces cerevisiae. The settings on record: 20 ng FK506, 10 mcg CsA, 10 mcg L733,560, 20 mcg aculeacin, 20 mcg papulacandin, 48 h. The protocol:
as §1, §2

The subject of a further experiment is S. cerevisiae R560-1C. As to the kind of experiment: secondary screen, zone size on agar. The experiment is classed as cell-based, Saccharomyces cerevisiae. The settings on record: 20 ng FK506, 10 mcg CsA, 10 mcg L733,560, 20 mcg aculeacin, 20 mcg papulacandin. The protocol:
(§3) For positively identifying glucan synthase inhibitors, screening with strain R560-1C and its parent W303-1A was instituted in a manner identical to that described for calcineurin inhibitors. Complete loss of a zone, or marked reduction in size, on R560-1C versus W303-1A indicates a glucan synthase inhibitor. No zones are seen with calcineurin inhibitors using this pair of strains.
as §1, §2

The test system of a further experiment is S. cerevisiae W303-1A. The experiment can be described thus: secondary screen, zone size on agar. Type of experiment: cell-based, Saccharomyces cerevisiae. As to conditions: 20 ng FK506, 10 mcg CsA, 10 mcg L733,560, 20 mcg aculeacin, 20 mcg papulacandin. The protocol:
as §3, §1, §2

The subject of experiment [3] is S. cerevisiae MY2144 (fks 1-3). As to the kind of experiment: MIC, growth inhibition. The experiment is classed as cell-based, Saccharomyces cerevisiae. As to conditions: MY2144 (fks 1-3). The protocol:
(§4) Liquid broth microdilution assay
(§5) To quantitate the sensitivity of a particular strain of S. cerevisiae to a compound such as FK506, L-733,560, or nikkomycin Z, the following procedure was followed:
(§6) Dissolve drug of interest at 4× the desired initial concentration. For L-733,560, a 64 mcg/ml solution in sterile SD is prepared. Aliquot 75 mcL of the drug suspension into column 3. Using a multichannel pipettor, transfer 75 mcL from column 3 into column 4, pipet up and down three times to mix, and then transfer 75 mcL from column 4 into column 5. Repeat the serial dilution until column 12 is reached; after mixing, discard 75 mcL to waste.
(§7) Inoculate each strain in a given row by adding 75 mcL of the inoculum into columns 2 to 12. […] Column 2 serves as the no-drug or 100% growth control. The plate is then incubated overnight at 30° C. without shaking.
(§8) After approximately 24 hours of incubation, gently agitate the plate to resuspend the cells and read the absorbance at 600 nm wavelength. The % control growth for any given well can be calculated by dividing the absorbance value for that well by the value from column 2 in the same row. If this is done for each column, the data can be plotted as "Percent control growth" vs. "Drug concentration". The resulting dose-response curve can be used to compare the drug sensitivities of various strains.
(§9) The data in the following table are the minimum concentration of the various drugs required to inhibit the growth of each the mutants and their parent X2180-1A.

For another experiment, the system named is S. cerevisiae MY2145. As to the kind of experiment: MIC, growth inhibition. The experiment is classed as cell-based, Saccharomyces cerevisiae. The settings on record: MY2145. The protocol:
as §4, §5, §6, §7, §8, §9

The subject of a further experiment is S. cerevisiae X2180-1A. The experiment can be described thus: MIC, growth inhibition. The experiment is classed as cell-based, Saccharomyces cerevisiae. The settings on record: minimum concentration required to inhibit growth. As to the method:
as §4, §5, §6, §7, §8, §9

Experiment [4] concerns the target 1,3-beta-D glucan synthase from X2180-1A (Saccharomyces cerevisiae, UniProt P38631). As to the kind of experiment: 1,3-beta-D glucan synthase assay, membrane preparation. Type of experiment: biochemical. As to conditions: membranes of X2180-1A. As to the method: Cell free extracts were prepared from mutant and wild type cells grown to logarithmic phase as previously described (Kang and Cabib, PNAS, 83:5808-5812, 1986). After homogenization with glass beads, the unbroken cells and debris were removed by a low speed centrifugation (1,000×gfor 5 min). The supernatant fluids were centrifuged at 100,000×g for 60 min and the pellets were washed with 2.5 ml (per gram of wet cells) of buffer containing 0.05M potassium phosphate (pH 7.5), 0.5 mM DTT, and 1.0 mM PMSF. The washed pellet was resuspended in the same buffer containing 5% glycerol. This served as the microsomal membranes source containing both chitin and glucan synthase enzymatic activities. The standard 1,3-beta-D glucan synthase reaction was initiated by mixing 35 mcg protein in cocktail I, which included TEK buffer (125 mM Tris chloride, pH 7.5, 31 mM KF, and 1 mM EDTA), 25% PBS, pH 7.0, 3.31 mcM GTP-gamma-S, and 0.25% BSA in a total volume of 69 mcL, with cocktail II, which included 4 units alpha-amylase, 25 mcg UDP-glucose, and 1 microCi UDP-^3 H-glucose, in a total volume of 11 mcL. Following 150 minutes of incubation at 30° C., the incorporation of UDP-^[…] into glucan was measured after precipitation with trichloroacetic acid.
Crude enzyme preparations associated with cell membranes were tested for glucan and chitin synthesis activities. […]

Chain of 1,3-beta-D glucan synthase from X2180-1A (P38631 whole entry): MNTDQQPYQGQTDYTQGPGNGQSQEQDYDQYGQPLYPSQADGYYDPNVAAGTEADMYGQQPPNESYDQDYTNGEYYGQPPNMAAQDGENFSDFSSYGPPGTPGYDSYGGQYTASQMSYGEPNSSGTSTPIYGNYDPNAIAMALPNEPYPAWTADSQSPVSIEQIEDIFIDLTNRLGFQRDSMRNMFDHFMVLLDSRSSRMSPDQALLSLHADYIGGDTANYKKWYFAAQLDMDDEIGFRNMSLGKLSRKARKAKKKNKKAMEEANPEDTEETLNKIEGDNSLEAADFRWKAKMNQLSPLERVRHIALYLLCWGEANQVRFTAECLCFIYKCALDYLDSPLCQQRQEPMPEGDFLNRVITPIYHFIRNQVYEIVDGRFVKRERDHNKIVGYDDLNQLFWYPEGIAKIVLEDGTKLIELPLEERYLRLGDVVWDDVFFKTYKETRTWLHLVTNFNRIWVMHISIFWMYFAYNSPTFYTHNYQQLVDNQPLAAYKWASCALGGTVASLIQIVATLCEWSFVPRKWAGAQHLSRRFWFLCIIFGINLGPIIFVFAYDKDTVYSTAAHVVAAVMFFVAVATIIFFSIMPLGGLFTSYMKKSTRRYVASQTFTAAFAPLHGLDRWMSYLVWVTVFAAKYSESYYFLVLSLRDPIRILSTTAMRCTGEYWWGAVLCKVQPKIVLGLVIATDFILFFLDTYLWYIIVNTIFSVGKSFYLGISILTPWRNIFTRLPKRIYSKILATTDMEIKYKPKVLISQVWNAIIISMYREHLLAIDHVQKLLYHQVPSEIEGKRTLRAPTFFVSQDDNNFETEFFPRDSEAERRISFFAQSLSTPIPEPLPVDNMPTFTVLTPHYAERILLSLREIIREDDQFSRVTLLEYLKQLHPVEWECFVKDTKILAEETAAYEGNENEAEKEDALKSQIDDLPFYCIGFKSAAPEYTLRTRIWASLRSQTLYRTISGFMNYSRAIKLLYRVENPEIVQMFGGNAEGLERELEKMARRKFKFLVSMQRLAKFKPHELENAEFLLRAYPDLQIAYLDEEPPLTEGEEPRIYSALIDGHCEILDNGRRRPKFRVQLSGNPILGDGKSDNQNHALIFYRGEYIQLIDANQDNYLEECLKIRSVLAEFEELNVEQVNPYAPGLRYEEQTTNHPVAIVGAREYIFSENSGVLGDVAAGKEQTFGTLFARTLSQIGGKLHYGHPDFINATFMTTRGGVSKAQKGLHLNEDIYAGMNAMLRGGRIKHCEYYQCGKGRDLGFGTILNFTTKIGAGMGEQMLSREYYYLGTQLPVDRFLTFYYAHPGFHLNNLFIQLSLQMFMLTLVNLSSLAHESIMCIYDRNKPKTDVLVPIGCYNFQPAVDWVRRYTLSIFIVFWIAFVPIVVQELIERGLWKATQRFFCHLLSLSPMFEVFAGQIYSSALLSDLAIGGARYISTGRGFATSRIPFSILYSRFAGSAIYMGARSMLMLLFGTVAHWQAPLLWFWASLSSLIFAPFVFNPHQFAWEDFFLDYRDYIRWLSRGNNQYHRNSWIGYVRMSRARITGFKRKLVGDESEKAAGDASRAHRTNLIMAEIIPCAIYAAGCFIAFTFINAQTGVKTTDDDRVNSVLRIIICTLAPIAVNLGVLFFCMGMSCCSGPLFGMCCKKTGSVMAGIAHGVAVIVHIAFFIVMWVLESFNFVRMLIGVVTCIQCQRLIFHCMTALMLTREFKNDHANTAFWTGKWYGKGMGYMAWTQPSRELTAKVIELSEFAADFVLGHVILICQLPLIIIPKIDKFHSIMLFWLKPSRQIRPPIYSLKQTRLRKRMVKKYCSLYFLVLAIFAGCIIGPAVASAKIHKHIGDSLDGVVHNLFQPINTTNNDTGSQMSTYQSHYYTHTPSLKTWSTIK
Chain of 1,3-beta-D glucan synthase from X2180-1A (P06780 1-206, further chain): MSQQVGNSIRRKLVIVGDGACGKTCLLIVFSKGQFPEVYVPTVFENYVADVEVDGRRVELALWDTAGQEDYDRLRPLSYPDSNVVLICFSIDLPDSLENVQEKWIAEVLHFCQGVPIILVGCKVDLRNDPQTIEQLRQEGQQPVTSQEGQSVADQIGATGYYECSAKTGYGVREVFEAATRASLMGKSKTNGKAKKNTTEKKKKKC

With dihydropapulacandin [L-687,781], the “Primary Screen Zone size (mm)” value is recorded as 20-22 mm in experiment [1] and 26-28 mm in experiment [2]. Moreover, the “Secondary Screen Zone size (mm)” value with S. cerevisiae R560-1C is 14-16 mm; with S. cerevisiae W303-1A it was 15-18 mm. For the same substance, the MIC in experiment [3] came out at 15 µg/mL; against S. cerevisiae MY2145, 5.5 µg/mL; with S. cerevisiae X2180-1A, 5.5 µg/mL. This substance came in with a concentration for half-maximal inhibition (IC50) in experiment [4] of 5.08 µg/mL.

What is called MIC is the lowest concentration that inhibits growth of the organism. Read a low MIC as a more susceptible organism. Usually IC50 stands for the midpoint of a concentration-inhibition curve.
